Results from ChEMBL document CHEMBL3217638, “Synthetic modulators of the retinoic acid receptor-related orphan receptors” (Medchemcomm, 2013).

Biological target: T1, Nuclear receptor ROR-gamma (Homo sapiens, UniProt P51449)
T1 sequence (P51449 whole entry): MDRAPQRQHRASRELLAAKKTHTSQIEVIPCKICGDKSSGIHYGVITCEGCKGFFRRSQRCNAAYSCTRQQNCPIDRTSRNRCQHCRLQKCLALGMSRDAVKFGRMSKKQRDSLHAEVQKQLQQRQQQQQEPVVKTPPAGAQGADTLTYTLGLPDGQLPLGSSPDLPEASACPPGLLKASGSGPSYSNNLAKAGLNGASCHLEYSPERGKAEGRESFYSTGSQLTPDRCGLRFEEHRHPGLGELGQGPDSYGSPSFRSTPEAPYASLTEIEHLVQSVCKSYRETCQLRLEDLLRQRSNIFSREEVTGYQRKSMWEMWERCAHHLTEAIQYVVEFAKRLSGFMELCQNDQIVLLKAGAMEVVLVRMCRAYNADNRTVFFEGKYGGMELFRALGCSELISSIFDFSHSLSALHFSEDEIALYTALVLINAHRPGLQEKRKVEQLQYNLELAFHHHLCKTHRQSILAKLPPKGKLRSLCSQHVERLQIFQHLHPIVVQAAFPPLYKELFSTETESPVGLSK
Assay: Displacement of fluorescein-labeled 25-hydroxycholesterol from human N-terminal 6xHis-tagged ROR gamma LBD (residues 262 to 518) expressed in Escherichia coli BL21-CodonPlus(DE3)-RIL cells by fluorescence polarization assay

Structure (SMILES): C[C@H]1O[C@@H](O[C@H]2[C@@H](O)C[C@H](O[C@H]3[C@@H](O)C[C@H](O[C@H]4CC[C@@]5(C)[C@H](CC[C@@H]6[C@@H]5C[C@@H](O)[C@]5(C)[C@@H](C7=CC(=O)OC7)CC[C@]65O)C4)O[C@@H]3C)O[C@@H]2C)C[C@H](O)[C@@H]1O [DIGOXIN]
- IC50: 4 µM
